This data set in a line: Water solubility. Particulars: aqueous buffer, pH 6.8, the substance or its hydrochloride. It is filed as physicochemical.

A word on the solubility: it is the concentration that dissolves in the medium under given conditions. Read a low solubility as little dissolved substance.

`CNCc1cn(S(=O)(=O)c2cccc(F)c2)c(-c2ccc(F)cc2F)c1OC` [Chemical Formula 1, 1-(5-(2,4-difluorophenyl)-1-((3-fluorophenyl)sulfonyl)-4-methoxy-1H-pyrrol-3-yl)-N-methylmethanamine] displayed a solubility of 2170 µg/mL.

These data come from patent publication US20240261261A1, “NEW FORMULATION FOR INJECTION COMPRISING 1-(5-(2,4-DIFLUOROPHENYL)-1-((3-FLUOROPHENYL)SULFONYL)-4-METHOXY-1H-PYRROL-3-YL)-N-METHYLMETHANAMINE” (DAEWOONG PHARMACEUTICAL CO., LTD., priority 2021, published 2024).
